# Data: patent US11266086B2, “Efficient plant transformation method” (Wisconsin Alumni Research Foundation, priority 2018, dated 2022)
# How the values were obtained:
# Format in all cases: in vivo
# soybean VAEs [1] = test: Particle bombardment of soybean VAEs with Dicot Bomb 9 and glyphosate selection; conditions: for TF / Rooting Shoots: BOMB 9, glyphosate selection
# Experimental: For particle bombardment experiments, gold-DNA “bead prep” was prepared by first washing 50 mg 0.6 um gold microcarriers (BioRad part #1652262) in 1 ml 100% ethanol and sonicating for 1 min 45 kHz. Gold was pelleted by centrifugation at 5000 rpm in microfuge (˜2300×g) and ethanol removed. Gold was then re-suspended in 1 ml 100% ethanol and stored at −20 C until use. To precipitate DNA onto beads, the 50 mg gold/1 ml ethanol stock was sonicated for 1 min 45 kHz. 42 ul of this stock was transferred to an Eppendorf tube, then pelleted by centrifugation at 2500 rpm for 10 seconds, after which ethanol was removed. 500 uL sterile water was added and mixture sonicated 1 min 45 kHz. Gold was again pelleted by centrifugation at 2500 rpm for 10 seconds and water removed. 25 ul sterile water was then added, followed by sonication for 1 min 45 kHz. 2.6, 1.3, or 0.65 ug VS225 DNA was added, then sterile water to bring volume up to 245 ul. 250 ul cold 2.5 M CaCl2 was added, followed by 50 ul 0.1 M spermidine. Solution was mixed by low speed vortexing. Tube was incubated on ice for approximately 1 hour with gentle inversions every 5-10 minutes. DNA/gold was pelleted at 1000 rpm (˜100×g) for 2 min and supernatant removed. Pellet was then washed with 1 ml 100% EtOH w/pipette tip, then pelleted again at 1000 rpm (˜100×g) for 2 min and supernatant removed 36 ul 100% EtOH was added to tube and gold completely re-suspended with low-speed vortexing. Bead prep was stored at −20 C until used, with 5 ul used per bombardment. This corresponds to 360, 180, or 90 ng DNA per blast; 290 ug gold per blast (1.2, 0.6, or 0.3 ng DNA per ug gold).
# For blasting Soybean VAEs, meristem explants were incubated in 20% PEG4000 with 60 mg/L Captan and 30 mg/L Bravo for 1 hour, rinsed thoroughly, and pre-cultured overnight on WCIC EJW1 media at 28 C 16/8 photoperiod.
# After preculture, Soybean VAEs were targeted on a 12% xantham gum holding media, 20 per plate, with meristems oriented upward. Prior to particle bombardment on the PDS-1000 helium gun, stop screens (BioRad part 1652336), 1350 psi rupture disks (BioRad 1652330), and macrocarrier holders (BioRad part 1652322) were sanitized for 1 min in 70% EtOH. Carrier sheets (BioRad part 1652335) were sanitized for 1 min in isopropanol. 1350 psi rupture disk was placed into the rupture disk retaining cap and screwed into the gas acceleration chamber. Stop screen was placed in the brass adjustable nest. 5 uL bead prep was deposited on the center of each carrier sheet loaded onto the macrocarrier holder and allowed to air dry. Macrocarrier holder was then turned over to place above retaining screen on brass nest. Macrocarrier cover lid was screwed on and completed macrocarrier launch assembly was placed on shelf directly under rupture disk. Gap distance between rupture disk and launch assembly was approximately 1 cm. Lid from target plate was removed and plate was placed on shelf 2 (2nd shelf from macrocarrier launch assembly) which is approximately 6 cm from assembly. Helium tank, PDS-1000, and vacuum were all turned on. Door was closed and vacuum applied to ˜27-28 In Hg. Fire button was depressed and held down until blast was complete. Vacuum was then released and target plate removed.
# After blasting, soybean VAEs were detargeted onto WCIC EJW1 media and allowed to rest overnight at 28 C 16/8 photoperiod. Explants were then placed on WCIC Spectinomycin Selection Medium and placed in 28 C 16/8 photoperiod.
# Alternate selectable markers for soybean VAE transformation—We applied soybean VAE technology to glyphosate selection, and were able to recover T0 plants from particle bombardment using Dicot Bomb 9 (FIG. 29) and the Goosegrass EPSP; where the explants were selected on 75 uM glyphosate; then rooted on 25 uM glyphosate. […] Our glyphosate selection work focused on reducing this cytokinin load during the preculture/rest phase. The T0 rooted shoots tested positive for GUS and RFP (tdTomato).
# soybean VAEs [2] = test: Agrobacterium-mediated transformation of soybean meristem explants / VAEs with TDZ in co-culture
# Experimental: Soybean seeds were surface sanitized in 20% Clorox (from concentrated Clorox with 8.25% sodium hypochlorite) for 5 minutes, rinsed 5× with sterile RO water, and then primed by allowing them to sit for 2 hrs at room temperature. Seeds were then imbibed in WCIC Bean Germination Media (BGM) overnight. Meristem explants were prepared the next day by removing seed coats and cotyledons from the seed using either a manual process or in a wet mill consisting of a series of rollers and spray nozzles. Meristem explants were then either dried under a variety of conditions, or used fresh. Drying of explants was performed in either a Laminar Flow Hood (LFH) with explants resting on a filter paper exposed to air, or in a BryAir seed dryer (model VFB-3-E-DXA) on filter paper. For internal moisture determination, 0.5-1 g of dried material was placed in a 103 C oven for 16-18 hours, contents allowed to cool, then re-weighed. For use in transformation, dried explants—designated as soy VAEs (value added explants) were incubated 1-2 hours at room temperature in 20% PEG4000 (dissolved in sterile distilled water) supplemented with 60 mg/L Captan fungicide and 30 mg/L Bravo (Daconil) fungicide. Explants were then rinsed 5-6× with sterile distilled water and inoculated with Agrobacterium. […] FIGS. 3A and 3B show VAEs (3A) as compared to explants directly from just dry seed (3B).
# Agrobacterium inoculum was prepared under laminar flow hood from overnight cultures derived from 20% glycerol stocks stored at −80 C. Glycerol stocks were allowed to thaw, and approximately 50 ul stock was added to 50 ml LB with 50 mg/L kanamycin (GV3101 strain); or 250 ul stock to 50 ml LB with 50 ppm kanamycin and 100 ppm carbenicillin (AGL1 strain). The VS225 binary construct with pVS1 origin of replication conferred resistance to kanamycin, and had aadA, gus, and cas9 genes on its T-DNA. The pWI-1000 binary construct with pVS1 origin of replication conferred resistance to kanamycin, and had aadA and gus on its T-DNA. The pWI-1000 dsRED binary construct with pVS1 origin of replication conferred resistance to kanamycin, and had aadA, gus, and rfp (dsRED) on its T-DNA. Cultures were grown overnight at 28° C. 200 RPM on orbital shaker (Innova 4400 incubator shaker). The next morning optical densities of cultures at 660 nm (OD660) were checked (Hach DR5000™ Spectrophotometer) under laminar flow and then centrifuged at 2619×g for 20 min (H6000A rotor on Sorvall® RC3B centrifuge). Pelleted bacteria was re-suspended in WCIC INO media under laminar flow, diluted to OD660 0.3-0.45, and incubated at room temperature 150 RPM until used (VWR orbital shaker). In some experiments acetosyringone was added to inoculum at 100 uM to help induce the vir operon.
# Meristem explants were inoculated under laminar flow in inverted PlantCon® (approximately 25 ml inoculum per PlantCon®) (MP Biomedicals, LLC Cat. 26-722-06) and sonicated for 20 s, 45+/−2 kHz (L&R Sonicator Quantrex 450) in a 0.1% Triton X-100 water bath (Triton X-100 from Sigma #9002-93-1). Inoculated explants were incubated with inoculum for additional 30 min at room temperature at 75 RPM. Excess inoculum was then removed, and explants co-cultured in PlantCons® with 2.5 ml WCIC INO media supplemented with 50 mg/L nystatin, 10 mg/L TBZ, and 95 uM lipoic acid at 23 C 16/8 photoperiod. In some experiments this co-culture media was further supplemented with 1 mg/L TDZ in attempt to multiply meristematic cells and possibly suppress apical dominance. In some experiments acetosyringone was added to inoculum and/or co-culture medium at 100 uM as an inducing agent for the virulence cascade in the vir operon.
# After co-culture (3-5 days) explants were transferred to 200 ppm spectinomycin WCIC B5 media. When using the GV3101 strain we supplemented this selection media with 200-400 mg/L carbenicillin to knock Agrobacterium overgrowth down. […]
# [3] = tested on: non-inoculated soybean VAEs; test: Spectinomycin selection titration on non-inoculated soybean VAEs; conditions: at 5 weeks
# Description: We ran a titration of spectinomycin selection levels on non-inoculated soybean VAEs, and could see visible bleaching and suppression of shooting and rooting as low as 50 ppm at 5 weeks (FIG. 5).
structure (smiles),measurement,setting,value
"c1ccc(CNc2ncnc3nc[nH]c23)cc1 [BAP, 6-benzylaminopurine]",TF,soybean VAEs [1]; preculture and rest OR (3 ppm BAP),0.3%
same,Rooting Shoots,"soybean VAEs [1]; preculture and rest OR (3 ppm BAP), 380 initial explants",1
"O=C(Nc1ccccc1)Nc1cnns1 [TDZ, thidiazuron]",TF,"soybean VAEs [2]; VAE batch S16b, 5 h dry in 20 C Bryair to 8.3% moisture, 3025N, TDZ in co-culture",0.6%
same,# T0 Plants,"soybean VAEs [2]; VAE batch S16b, 5 h dry in 20 C Bryair to 8.3% moisture, 3025N, TDZ in co-culture, 162 explants",1
same,TF,"soybean VAEs [2]; VAE batch S18, 6 h dry in 20 C Bryair to 27% moisture, LD10-30087, TDZ in co-culture",1.4%
same,# T0 Plants,"soybean VAEs [2]; VAE batch S18, 6 h dry in 20 C Bryair to 27% moisture, LD10-30087, TDZ in co-culture, 74 explants",1
same,TF,"soybean VAEs [2]; VAE batch S19, 6 h dry in 20 C Bryair to 21% moisture, LD10-30092, TDZ in co-culture",3.3%
same,# T0 Plants,"soybean VAEs [2]; VAE batch S19, 6 h dry in 20 C Bryair to 21% moisture, LD10-30092, TDZ in co-culture, 91 explants",3
same,TF,"soybean VAEs [2]; VAE batch S20, 6 h dry in 20 C Bryair to 18% moisture, LD10-30094, TDZ in co-culture",1.2%
same,# T0 Plants,"soybean VAEs [2]; VAE batch S20, 6 h dry in 20 C Bryair to 18% moisture, LD10-30094, TDZ in co-culture, 85 explants",1
same,TF,"soybean VAEs [2]; VAE batch S26, 6 h dry in 20 C Bryair, W82, TDZ in co-culture (Table 12)",4.4%
same,# T0 Plants,"soybean VAEs [2]; VAE batch S26, 6 h dry in 20 C Bryair, W82, TDZ in co-culture, 182 explants (Table 12)",8
same,TF,"soybean VAEs [2]; VAE batch S27, 5 h dry in 20 C Bryair, 3849N, TDZ in co-culture",2.1%
same,# T0 Plants,"soybean VAEs [2]; VAE batch S27, 5 h dry in 20 C Bryair, 3849N, TDZ in co-culture, 289 explants",6
same,TF,"soybean VAEs [2]; W82 VAEs, 20 C Bryair 5.5 h, 1 ppm TDZ in co-culture, second set of replicates",3.2%
same,# T0 Plants,"soybean VAEs [2]; W82 VAEs, 20 C Bryair 5.5 h, 1 ppm TDZ in co-culture, second set of replicates, 126 explants",4
same,TF,"soybean VAEs [2]; W82 VAEs, 20 C Bryair 6 h, 1 ppm TDZ in co-culture, first set of replicates (Table 13b)",5.5%
same,# T0 Plants,"soybean VAEs [2]; W82 VAEs, 20 C Bryair 6 h, 1 ppm TDZ in co-culture, first set of replicates (Table 13b), 182 explants",10
same,TF,"soybean VAEs [2]; W82 VAEs, LFH 20.5 h, 1 ppm TDZ in co-culture, second set of replicates",2.1%
same,# T0 Plants,"soybean VAEs [2]; W82 VAEs, LFH 20.5 h, 1 ppm TDZ in co-culture, second set of replicates, 144 explants",3
same,TF,"soybean VAEs [2]; W82 VAEs, various drying conditions, 1 ppm TDZ in co-culture, summary of replicates",3.8%
same,# R0 Plants,"soybean VAEs [2]; W82 VAEs, various drying conditions, 1 ppm TDZ in co-culture, summary of replicates, 452 explants",17
same,TF,"soybean VAEs [2]; freshly excised Williams82, fresh sample of explants dried to generate S17 series, TDZ 1 mg/L in co-culture",12.6%
same,# T0 Plants,"soybean VAEs [2]; freshly excised Williams82, fresh sample of explants dried to generate S17 series, TDZ 1 mg/L in co-culture, 95 explants",12
same,effect of TDZ in co-culture on transformation,"soybean VAEs [2]; freshly excised soy meristem explants (S17 series), TDZ 1 mg/L in co-culture",apparent benefit
same,TF,"soybean VAEs [1]; preculture EJW1 (1 ppm TDZ), rest EJW0 (no PGRs)",0.4%
same,Rooting Shoots,"soybean VAEs [1]; preculture EJW1 (1 ppm TDZ), rest EJW0 (no PGRs), 264 initial explants",1
same,TF,soybean VAEs [1]; preculture and rest EJW3 (0.5 ppm TDZ),0.5%
same,Rooting Shoots,"soybean VAEs [1]; preculture and rest EJW3 (0.5 ppm TDZ), 387 initial explants",2
O=C(O)CNCP(=O)(O)O [glyphosate],plant recovery with glyphosate selection,"soybean VAEs [1]; preculture and resting media conditions of the spectinomycin protocol (EJW1 with TDZ), particle bombardment",yielded no plants
CN[C@@H]1[C@H](O)[C@H](NC)[C@H]2O[C@@]3(O)C(=O)C[C@@H](C)O[C@H]3O[C@@H]2[C@H]1O [spectinomycin],lowest spectinomycin level with visible bleaching and suppression of shooting and rooting,[3],50 ppm
